Consider 19 molecules from PubChem BioAssay AID228 (DTP/NCI, 2004).

Values joined by “and” are separate entries in the source; they are usually repeats but may differ in a detail not shown here. Identical values can stand only once. Records with an inconclusive call do not appear.

This assay deals with BDF1 mice, Friend leukemia sc, tumor weight T/C. Kind of assay: NCI In Vivo Anticancer Drug Screen. Data for tumor model Friend Virus Leukemia (Solid) (subcutaneous) in B6D2F1 (BDF1) mice. The following applies: endpoint: mean tumor weight, higher = larger tumour. The method, then: The antitumor activity of compounds was measured in mice bearing transplantable tumors. Survival or tumor size were measured and the results are expressed as the measurement made in the treated group (T) divided by the measurement made in the vehicle treated control group (C). The tumor model used in this assay is Friend Virus Leukemia (Solid) (subcutaneous) in B6D2F1 (BDF1) mice

The mark [1] stands for this setting: dose: 250.0 mg/kg/injection, schedule: Q01DX011 (ip), vehicle: saline.
Where [2] appears, read: dose: 15.0 mg/kg/injection, schedule: Q01DX011 (ip), vehicle: saline.
[3] abbreviates: dose: 30.0 mg/kg/injection, schedule: Q01DX011 (ip), vehicle: saline.
[4] abbreviates: dose: 62.5 mg/kg/injection, schedule: Q01DX011 (ip), vehicle: carboxymethylcellulose (CMC).
Where [5] appears, read: dose: 125.0 mg/kg/injection, schedule: Q01DX011 (ip), vehicle: carboxymethylcellulose (CMC).
[6] abbreviates: dose: 250.0 mg/kg/injection, schedule: Q01DX011 (ip), vehicle: carboxymethylcellulose (CMC).
Setting [7] is: dose: 500.0 mg/kg/injection, schedule: Q01DX011 (ip), vehicle: carboxymethylcellulose (CMC).
Where [8] appears, read: dose: 37.5 mg/kg/injection, schedule: Q01DX011 (ip), vehicle: carboxymethylcellulose (CMC).
Where [9] appears, read: dose: 75.0 mg/kg/injection, schedule: Q01DX011 (ip), vehicle: carboxymethylcellulose (CMC).
[10] abbreviates: dose: 150.0 mg/kg/injection, schedule: Q01DX011 (ip), vehicle: carboxymethylcellulose (CMC).
The mark [11] stands for this setting: dose: 5.0 mg/kg/injection, schedule: Q01DX011 (ip), vehicle: saline.
Setting [12] is: dose: 10.0 mg/kg/injection, schedule: Q01DX011 (ip), vehicle: saline.
[13] abbreviates: dose: 100.0 mg/kg/injection, schedule: Q01DX011 (ip), vehicle: carboxymethylcellulose (CMC).

For the molecule `COC(=S)SCN(CSC(=S)OC)c1ccccc1Cl`, the T/C by setting is: (dose: 125.0 mg/kg/injection, schedule: Q01DX011 (ip), vehicle: saline) 95 % of control; under setting [1], 107 % of control.

Turning to `C=CC(=O)NCNC(=O)C=C`, the T/C is, setting by setting: under setting [2], 89 % of control; under setting [3], 84 % of control; (dose: 60.0 mg/kg/injection, schedule: Q01DX011 (ip), vehicle: saline) 70 % of control and 51 % of control; (dose: 120.0 mg/kg/injection, schedule: Q01DX011 (ip), vehicle: saline) 16 % of control and 39 % of control.

Regarding `CC(=O)N(C)C`, under setting [1], the T/C was 113 % of control.

As for `CC1(C)CC(C)(c2ccccc2)c2ccccc21` (stereo unspecified), the T/C reads like this: under setting [4], 68 % of control; under setting [5], 70 % of control; under setting [6], 67 % of control; under setting [7], 25 % of control.

As to `C[C@]12C=CC(=O)C=C1CC[C@@H]1[C@@H]2CC[C@]2(C)OC(=O)CC[C@@H]12`, the T/C is, setting by setting: (dose: 250.0 mg/kg/injection, schedule: Q01DX011 (sc), vehicle: steriod suspending solution) 115 % of control; (dose: 500.0 mg/kg/injection, schedule: Q01DX011 (sc), vehicle: steriod suspending solution) 120 % of control; (dose: 1000.0 mg/kg/injection, schedule: Q01DX011 (sc), vehicle: steriod suspending solution) 112 % of control.

As to `CC(C)(c1ccccc1)c1ccc(O)cc1`, the T/C under setting [8] is 94 % of control, the T/C under setting [9] is 107 % of control and the T/C under setting [10] is 87 % of control.

Regarding `O=C1C=CC(=Nc2ccc(O)c3ncccc23)c2cccnc21`, the T/C is 71 % of control (dose: 6.0 mg/kg/injection, schedule: Q01DX011 (ip), vehicle: carboxymethylcellulose (CMC)) and 84 % of control (dose: 12.5 mg/kg/injection, schedule: Q01DX011 (ip), vehicle: carboxymethylcellulose (CMC)).

On to `CN(C)c1nc(N(C)C)nc(N(C)C)n1`, for which the T/C by setting is: (dose: 3.75 mg/kg/injection, schedule: Q01DX011 (ip), vehicle: other) 104 % of control; (dose: 7.5 mg/kg/injection, schedule: Q01DX011 (ip), vehicle: other) 83 % of control; (dose: 15.0 mg/kg/injection, schedule: Q01DX011 (ip), vehicle: other) 112 % of control; (dose: 30.0 mg/kg/injection, schedule: Q01DX011 (ip), vehicle: other) 84 % of control.

As for `CN(N=O)C(N)=O`, the T/C (dose: 4.0 mg/kg/injection, schedule: Q01DX011 (ip), vehicle: carboxymethylcellulose (CMC)) was 94 % of control and 95 % of control; the T/C under setting [11] was 53 % of control; the T/C (dose: 8.0 mg/kg/injection, schedule: Q01DX011 (ip), vehicle: carboxymethylcellulose (CMC)) is 98 % of control and 117 % of control; the T/C under setting [12] is 31 % of control; the T/C under setting [2] is 20 % of control; the T/C (dose: 16.0 mg/kg/injection, schedule: Q01DX011 (ip), vehicle: carboxymethylcellulose (CMC)) is 46 % of control and 49 % of control. In addition, the T/C (dose: 22.0 mg/kg/injection, schedule: Q01DX011 (ip), vehicle: saline) is 22 % of control and the T/C (dose: 30.0 mg/kg/injection, schedule: Q01DX011 (ip), vehicle: carboxymethylcellulose (CMC)) was 59 % of control.

For `CC(/C=N/N=C(N)N)=N/N=C(N)N`, the T/C (dose: 50.0 mg/kg/injection, schedule: Q01DX011 (ip), vehicle: saline) is 124 % of control.

In the case of `Cc1cc(N(CCCl)CCCl)ccc1N=Nc1ccccc1C(=O)O`, the T/C is, setting by setting: under setting [11], 111 % of control; (dose: 7.5 mg/kg/injection, schedule: Q01DX011 (ip), vehicle: saline) 111 % of control; under setting [12], 105 % of control; under setting [2], 60 % of control and 73 % of control; (dose: 25.0 mg/kg/injection, schedule: Q01DX011 (ip), vehicle: saline) 21 % of control; under setting [3], 20 % of control.

Take `O=C(O)CC(O)(CC(=O)O)C(=O)O.[Ga]`: the T/C (dose: 25.0 mg/kg/injection, schedule: Q01DX011 (ip), vehicle: carboxymethylcellulose (CMC)) was 108 % of control and the T/C (dose: 50.0 mg/kg/injection, schedule: Q01DX011 (ip), vehicle: carboxymethylcellulose (CMC)) is 104 % of control.

For `O=c1[nH]c2cc(Cl)c(Cl)cc2o1`, the T/C was 90 % of control (dose: 19.0 mg/kg/injection, schedule: Q01DX011 (ip), vehicle: carboxymethylcellulose (CMC)); 81 % of control under setting [8]; 82 % of control under setting [9]; 77 % of control under setting [10].

On to `CC(C)CCS(=O)(=O)OCCCCOS(=O)(=O)CCC(C)C`, for which the T/C was 98 % of control under setting [4], 97 % of control under setting [5], 73 % of control under setting [6] and 39 % of control under setting [7].

With `CC(CCc1cccc2ccccc12)(C(=O)O)C(=O)O`, the T/C under setting [13] is 92 % of control.

`O=C(Nc1ccc(C2=NCCN2)cc1)c1ccc(C(=O)Nc2ccc(C3=NCCN3)cc2)cc1`: the T/C is 94 % of control (dose: 31.25 mg/kg/injection, schedule: Q01DX011 (ip), vehicle: carboxymethylcellulose (CMC)); 89 % of control under setting [4]; 99 % of control under setting [13]; 5 % of control under setting [5]; 32 % of control (dose: 187.0 mg/kg/injection, schedule: Q01DX011 (ip), vehicle: carboxymethylcellulose (CMC)).

Turning to `C[C@]12C=CC(=O)C=C1CC[C@@H]1[C@@H]2[C@@H](O)C[C@@]2(C)[C@H]1CC[C@]2(O)C(=O)COC(=O)C1CCCC1`, the T/C (dose: 0.12 mg/kg/injection, schedule: Q01DX011 (sc), vehicle: steriod suspending solution) is 103 % of control; the T/C (dose: 0.25 mg/kg/injection, schedule: Q01DX011 (sc), vehicle: steriod suspending solution) was 102 % of control; the T/C (dose: 0.5 mg/kg/injection, schedule: Q01DX011 (sc), vehicle: steriod suspending solution) was 95 % of control; the T/C (dose: 3.0 mg/kg/injection, schedule: Q01DX011 (sc), vehicle: steriod suspending solution) was 46 % of control; the T/C (dose: 6.0 mg/kg/injection, schedule: Q01DX011 (sc), vehicle: steriod suspending solution) is 47 % of control; the T/C (dose: 6.3 mg/kg/injection, schedule: Q01DX011 (sc), vehicle: steriod suspending solution) is 38 % of control. For the same molecule, the T/C is, setting by setting: (dose: 12.0 mg/kg/injection, schedule: Q01DX011 (sc), vehicle: steriod suspending solution) 33 % of control; (dose: 12.5 mg/kg/injection, schedule: Q01DX011 (sc), vehicle: steriod suspending solution) 25 % of control; (dose: 25.0 mg/kg/injection, schedule: Q01DX011 (sc), vehicle: steriod suspending solution) 10 % of control and 24 % of control; (dose: 50.0 mg/kg/injection, schedule: Q01DX011 (sc), vehicle: steriod suspending solution) 8 % of control and 14 % of control; (dose: 100.0 mg/kg/injection, schedule: Q01DX011 (sc), vehicle: steriod suspending solution) 7 % of control.

Consider `CNCc1ccccc1`, for which the T/C is, setting by setting: (dose: 43.5 mg/kg/injection, schedule: Q01DX011 (ip), vehicle: saline) 110 % of control; (dose: 87.0 mg/kg/injection, schedule: Q01DX011 (ip), vehicle: saline) 100 % of control.

`CN(C)c1ccc2nc3ccc(=[N+](C)C)cc-3sc2c1`: the T/C (dose: 5.0 mg/kg/injection, schedule: Q01DX011 (ip), vehicle: carboxymethylcellulose (CMC)) was 278 % of control; the T/C (dose: 10.0 mg/kg/injection, schedule: Q01DX011 (ip), vehicle: carboxymethylcellulose (CMC)) was 175 % of control; the T/C (dose: 20.0 mg/kg/injection, schedule: Q01DX011 (ip), vehicle: carboxymethylcellulose (CMC)) was 171 % of control; the T/C (dose: 40.0 mg/kg/injection, schedule: Q01DX011 (ip), vehicle: carboxymethylcellulose (CMC)) was 235 % of control.
